Source: patent EP0726263A2, “Herbicidal (1,3,4)oxadiazoles and thiadiazoles” (American Cyanamid Company, priority 1995, dated 1996)

Key:
Format in all cases: in vivo
Papaver rhoeas [1] = test: Herbicidal activity, postemergence test; details: post; sprayed onto seedling plants, 800 g of active material per hectare; evaluated 2 weeks after treatment
Protocol: (§1) To evaluate their herbicidal activity, compounds according to the invention are tested using a representative range of plants: TRZAW Triticum aestivum HORVW Hordeum vulgare ZEAMX Zea mays GOSHI Gossypium hirsutum HELAN Helianthus annuus GLYMA Glycine max ALOMY Alopecurus myosuroides SETVI Setaria viridis ECHCG Echinochloa crus-galli GALAP Galium aparine STEME Stellaria media VERPE Veronica persica VIOAR Viola arvensis IPOHE Ipomoea hederacea LAMPU Lamium purpureum PAPRH Papaver rhoeas MATIN Matricaria inodora AMARE Amaranthus retroflexus ABUTH Abutilon theophrasti AMBEL Ambrosia artemisifolia CHEAL Chenopodium album
(§2) The tests fall into two categories, preemergence and postemergence. The preemergence tests involve spraying a liquid formulation of the compound onto the soil in which the seeds have recently been sown. The postemergence tests involve spraying a liquid formulation of the compound onto seedling plants.
(§3) The soil used in the tests is a prepared horticultural loam.
(§4) The formulations used in the tests are prepared from solutions of the test compounds in acetone containing 0.4% by weight of an alkylphenol/ethylene oxide condensate available under the trade mark TRITON X-155. These acetone solutions are diluted with water and the resulting formulations applied at dosage levels corresponding to 800 g of active material per hectare in a volume equivalent to 900 litres per hectare.
(§5) In the preemergence tests untreated sown soil and in the postemergence tests untreated soil bearing seedling plants are used as controls.
(§6) Results of herbicide evaluation are expressed on a rating scale (0-9). The scale is based upon a visual observation of plant stand, vigor, malformation, size, chlorosis, and general plant appearance as compared to a control. Preemergence and postemergence treatments are evaluated at 3 and 2 weeks after treatment, respectively.

Zea mays [2] = test: Herbicidal activity, postemergence test; details: post; sprayed onto seedling plants, 800 g of active material per hectare; evaluated 2 weeks after treatment
Protocol: as §1, §2, §3, §4, §5, §6

Gossypium hirsutum [3] = test: Herbicidal activity, postemergence test; details: post; sprayed onto seedling plants, 800 g of active material per hectare; evaluated 2 weeks after treatment
Protocol: as §1, §2, §3, §4, §5, §6

Stellaria media [4] = test: Herbicidal activity, postemergence test; details: post; sprayed onto seedling plants, 800 g of active material per hectare; evaluated 2 weeks after treatment
Protocol: as §1, §2, §3, §4, §5, §6

Triticum aestivum [5] = test: Herbicidal activity, postemergence test; details: post; sprayed onto seedling plants, 800 g of active material per hectare; evaluated 2 weeks after treatment
Protocol: as §1, §2, §3, §4, §5, §6

Alopecurus myosuroides [6] = test: Herbicidal activity, postemergence test; details: post; sprayed onto seedling plants, 800 g of active material per hectare; evaluated 2 weeks after treatment
Protocol: as §1, §2, §3, §4, §5, §6

Hordeum vulgare [7] = test: Herbicidal activity, postemergence test; details: post; sprayed onto seedling plants, 800 g of active material per hectare; evaluated 2 weeks after treatment
Protocol: as §1, §2, §3, §4, §5, §6

Ambrosia artemisifolia [8] = test: Herbicidal activity, postemergence test; details: post; sprayed onto seedling plants, 800 g of active material per hectare; evaluated 2 weeks after treatment
Protocol: as §1, §2, §3, §4, §5, §6

Abutilon theophrasti [9] = test: Herbicidal activity, postemergence test; details: post; sprayed onto seedling plants, 800 g of active material per hectare; evaluated 2 weeks after treatment
Protocol: as §1, §2, §3, §4, §5, §6

Galium aparine [10] = test: Herbicidal activity, postemergence test; details: post; sprayed onto seedling plants, 800 g of active material per hectare; evaluated 2 weeks after treatment
Protocol: as §1, §2, §3, §4, §5, §6

Ipomoea hederacea [11] = test: Herbicidal activity, postemergence test; details: post; sprayed onto seedling plants, 800 g of active material per hectare; evaluated 2 weeks after treatment
Protocol: as §1, §2, §3, §4, §5, §6

Glycine max [12] = test: Herbicidal activity, postemergence test; details: post; sprayed onto seedling plants, 800 g of active material per hectare; evaluated 2 weeks after treatment
Protocol: as §1, §2, §3, §4, §5, §6

Matricaria inodora [13] = test: Herbicidal activity, postemergence test; details: post; sprayed onto seedling plants, 800 g of active material per hectare; evaluated 2 weeks after treatment
Protocol: as §1, §2, §3, §4, §5, §6

Setaria viridis [14] = test: Herbicidal activity, postemergence test; details: post; sprayed onto seedling plants, 800 g of active material per hectare; evaluated 2 weeks after treatment
Protocol: as §1, §2, §3, §4, §5, §6

Lamium purpureum [15] = test: Herbicidal activity, postemergence test; details: post; sprayed onto seedling plants, 800 g of active material per hectare; evaluated 2 weeks after treatment
Protocol: as §1, §2, §3, §4, §5, §6

Veronica persica [16] = test: Herbicidal activity, postemergence test; details: post; sprayed onto seedling plants, 800 g of active material per hectare; evaluated 2 weeks after treatment
Protocol: as §1, §2, §3, §4, §5, §6

Amaranthus retroflexus [17] = test: Herbicidal activity, postemergence test; details: post; sprayed onto seedling plants, 800 g of active material per hectare; evaluated 2 weeks after treatment
Protocol: as §1, §2, §3, §4, §5, §6

Chenopodium album [18] = test: Herbicidal activity, postemergence test; details: post; sprayed onto seedling plants, 800 g of active material per hectare; evaluated 2 weeks after treatment
Protocol: as §1, §2, §3, §4, §5, §6

Papaver rhoeas [19] = test: Herbicidal activity, preemergence test; details: pre; sprayed onto soil, 800 g of active material per hectare; evaluated 3 weeks after treatment
Protocol: as §1, §2, §3, §4, §5, §6

Zea mays [20] = test: Herbicidal activity, preemergence test; details: pre; sprayed onto soil, 800 g of active material per hectare; evaluated 3 weeks after treatment
Protocol: as §1, §2, §3, §4, §5, §6

Gossypium hirsutum [21] = test: Herbicidal activity, preemergence test; details: pre; sprayed onto soil, 800 g of active material per hectare; evaluated 3 weeks after treatment
Protocol: as §1, §2, §3, §4, §5, §6

Stellaria media [22] = test: Herbicidal activity, preemergence test; details: pre; sprayed onto soil, 800 g of active material per hectare; evaluated 3 weeks after treatment
Protocol: as §1, §2, §3, §4, §5, §6

Triticum aestivum [23] = test: Herbicidal activity, preemergence test; details: pre; sprayed onto soil, 800 g of active material per hectare; evaluated 3 weeks after treatment
Protocol: as §1, §2, §3, §4, §5, §6

Alopecurus myosuroides [24] = test: Herbicidal activity, preemergence test; details: pre; sprayed onto soil, 800 g of active material per hectare; evaluated 3 weeks after treatment
Protocol: as §1, §2, §3, §4, §5, §6

Hordeum vulgare [25] = test: Herbicidal activity, preemergence test; details: pre; sprayed onto soil, 800 g of active material per hectare; evaluated 3 weeks after treatment
Protocol: as §1, §2, §3, §4, §5, §6

Ambrosia artemisifolia [26] = test: Herbicidal activity, preemergence test; details: pre; sprayed onto soil, 800 g of active material per hectare; evaluated 3 weeks after treatment
Protocol: as §1, §2, §3, §4, §5, §6

Abutilon theophrasti [27] = test: Herbicidal activity, preemergence test; details: pre; sprayed onto soil, 800 g of active material per hectare; evaluated 3 weeks after treatment
Protocol: as §1, §2, §3, §4, §5, §6

Galium aparine [28] = test: Herbicidal activity, preemergence test; details: pre; sprayed onto soil, 800 g of active material per hectare; evaluated 3 weeks after treatment
Protocol: as §1, §2, §3, §4, §5, §6

Ipomoea hederacea [29] = test: Herbicidal activity, preemergence test; details: pre; sprayed onto soil, 800 g of active material per hectare; evaluated 3 weeks after treatment
Protocol: as §1, §2, §3, §4, §5, §6

Glycine max [30] = test: Herbicidal activity, preemergence test; details: pre; sprayed onto soil, 800 g of active material per hectare; evaluated 3 weeks after treatment
Protocol: as §1, §2, §3, §4, §5, §6

Matricaria inodora [31] = test: Herbicidal activity, preemergence test; details: pre; sprayed onto soil, 800 g of active material per hectare; evaluated 3 weeks after treatment
Protocol: as §1, §2, §3, §4, §5, §6

Setaria viridis [32] = test: Herbicidal activity, preemergence test; details: pre; sprayed onto soil, 800 g of active material per hectare; evaluated 3 weeks after treatment
Protocol: as §1, §2, §3, §4, §5, §6

Lamium purpureum [33] = test: Herbicidal activity, preemergence test; details: pre; sprayed onto soil, 800 g of active material per hectare; evaluated 3 weeks after treatment
Protocol: as §1, §2, §3, §4, §5, §6

Veronica persica [34] = test: Herbicidal activity, preemergence test; details: pre; sprayed onto soil, 800 g of active material per hectare; evaluated 3 weeks after treatment
Protocol: as §1, §2, §3, §4, §5, §6

Amaranthus retroflexus [35] = test: Herbicidal activity, preemergence test; details: pre; sprayed onto soil, 800 g of active material per hectare; evaluated 3 weeks after treatment
Protocol: as §1, §2, §3, §4, §5, §6

Chenopodium album [36] = test: Herbicidal activity, preemergence test; details: pre; sprayed onto soil, 800 g of active material per hectare; evaluated 3 weeks after treatment
Protocol: as §1, §2, §3, §4, §5, §6

C[C@H](NC(=O)c1nnc(-c2ccc(F)cc2)o1)c1ccccc1 [Example 7]
PAPRH control rating (0-9) (Papaver rhoeas [1]): 9 (complete kill) | ZEAMX control rating (0-9) (Zea mays [2]): 2 (slight effect) | GOSHI control rating (0-9) (Gossypium hirsutum [3]): 9 (complete kill) | STEME control rating (0-9) (Stellaria media [4]): 9 (complete kill) | TRZAW control rating (0-9) (Triticum aestivum [5]): 4 (injury) | ALOMY control rating (0-9) (Alopecurus myosuroides [6]): 5 (definite injury) | HORVW control rating (0-9) (Hordeum vulgare [7]): 5 (definite injury) | AMBEL control rating (0-9) (Ambrosia artemisifolia [8]): 8 (approaching complete kill) | ABUTH control rating (0-9) (Abutilon theophrasti [9]): 9 (complete kill) | GALAP control rating (0-9) (Galium aparine [10]): 7 (good herbicidal effect) | IPOHE control rating (0-9) (Ipomoea hederacea [11]): 9 (complete kill) | GLXMA control rating (0-9) (Glycine max [12]): 8 (approaching complete kill) | MATIN control rating (0-9) (Matricaria inodora [13]): 9 (complete kill) | SETVI control rating (0-9) (Setaria viridis [14]): 9 (complete kill) | LAMPU control rating (0-9) (Lamium purpureum [15]): 9 (complete kill) | VERPE control rating (0-9) (Veronica persica [16]): 9 (complete kill) | AMARE control rating (0-9) (Amaranthus retroflexus [17]): 9 (complete kill) | CHEAL control rating (0-9) (Chenopodium album [18]): 9 (complete kill) | PAPRH control rating (0-9) (Papaver rhoeas [19]): 9 (complete kill) | ZEAMX control rating (0-9) (Zea mays [20]): 0 (no effect) | GOSHI control rating (0-9) (Gossypium hirsutum [21]): 0 (no effect) | STEME control rating (0-9) (Stellaria media [22]): 9 (complete kill) | TRZAW control rating (0-9) (Triticum aestivum [23]): 0 (no effect) | ALOMY control rating (0-9) (Alopecurus myosuroides [24]): 4 (injury) | HORVW control rating (0-9) (Hordeum vulgare [25]): 0 (no effect) | AMBEL control rating (0-9) (Ambrosia artemisifolia [26]): 0 (no effect) | ABUTH control rating (0-9) (Abutilon theophrasti [27]): 8 (approaching complete kill) | GALAP control rating (0-9) (Galium aparine [28]): 1 (trace effect) | IPOHE control rating (0-9) (Ipomoea hederacea [29]): 0 (no effect) | GLXMA control rating (0-9) (Glycine max [30]): 1 (trace effect) | MATIN control rating (0-9) (Matricaria inodora [31]): 9 (complete kill) | SETVI control rating (0-9) (Setaria viridis [32]): 9 (complete kill) | LAMPU control rating (0-9) (Lamium purpureum [33]): 9 (complete kill) | VERPE control rating (0-9) (Veronica persica [34]): 9 (complete kill) | AMARE control rating (0-9) (Amaranthus retroflexus [35]): 9 (complete kill) | CHEAL control rating (0-9) (Chenopodium album [36]): 8 (approaching complete kill)
